Measurements taken from patent US9260413B2, “Inhibitors of catechol O-methyl transferase and their use in the treatment of psychotic disorders” (Merck Sharp & Dohme Corp., priority 2013, dated 2016).
Read-outs that look alike come from different tables or passages of the source.

Target: purified human COMT enzyme of the Val158 variant (membrane-bound MB-COMT) (Homo sapiens (Human), UniProt P21964)
Experiment: Esculetin or Fluorescence Polarization assay (MB-COMT)
Assay type: biochemical
Procedure: Assays utilized purified human COMT enzyme of the Val158 variant (membrane-bound MB-COMT or soluble S-COMT) containing a C-terminal 6 or 10-histidine tag.
In a typical experiment the COMT inhibitory activity of the compounds of the present invention was determined in accordance with the following experimental methods detailed below. The fluorescence assay was based on methylation of a substrate (6,7-dihydroxycoumarin or ‘esculetin’) by COMT to produce a highly fluorescent product (7-hydroxy-6-methoxycoumarin or ‘scopoletin’). The reaction requires the presence of magnesium ions and a methyl donor, in this case S-adenosylmethionine (SAM). […] Recombinant enzyme was diluted in assay buffer (100 mM Na2HPO4 pH 7.4, 1 mM DTT, 0.005% Tween-20) and 35 μL was added to assay wells containing 1 μL of compound. Preincubation of COMT enzyme and compound proceeded for 2 hours at room temperature. Enzyme assays were initiated with 5 uL of a mixture containing 40 μM SAM (USB catalog # US10601), 4 μM esculetin (substrate) and 40 mM MgCl2. The formation of product (seopoletin) was monitored over time by fluorescence (excitation 340 nm, emission 460 nm, no lag, 100 μs integration time, 5 flashes, top read) using a Tecan Safire^2 plate reader. Assays were monitored over time until a signal to background of 4 to 1 was achieved. Titration curves and IC50 values were calculated using standard procedures. […] In some cases, compounds were not preincubated with MB-COMT for 2 hours at room temperature prior to starting the enzyme assays.
To determine IC50 values in the fluorescence polarization assay, solutions of test compounds were prepared and preincubated with COMT enzyme as stated above. […] After 25 minutes incubation at room temperature, reactions were quenched with 5 μL 250 mM EDTA, […]. To quenched reactions, 20 μL of a preformed complex containing S-adenosyl-L-cysteine (SAC) TAMRA tracer (2 mM from Ana spec diluted 1:80,000) and a 1:20 dilution of anti-S-adenosyl-L-homocysteine antibody (mouse monoclonal from Abbott Homocysteine detection kit, catalog #7D29-20) was prepared in assay buffer 11 (Na2HPO4 pH 7.2). Prior to combining with quenched enzyme assays, the SAH antibody/SAC TAMRA tracer complex was preformed at room temperature for 30 minutes while protected from light. Therefore, the final concentration of the SAH antibody/SAC TAMRA mix was 1:60 and 1:240,000, respectively. […] Titration curves and IC50 values were calculated using standard protocols.

[1] = Esculetin or Fluorescence Polarization assay, Val158 variant

| IC50 [1] | IC50 | SMILES |
| --- | --- | --- |
| 0.18 µM |  | Cn1c(-c2ccc(Cl)c(C(F)(F)F)c2)ncc(O)c1=O [Example 1, 2-[4-chloro-3-(trifluoromethyl)phenyl]-5-hydroxy-3-methylpyrimidin-4(3H)-one] |
|  | 0.093 µM | COc1ccc(Oc2cccc(-c3ncc(O)c(=O)n3C)c2)cc1 [Example 5, 5-hydroxy-2-[3-(4-methoxyphenoxy)phenyl]-3-methylpyrimidin-4(3H)-one] |
|  | 0.21 µM | O=c1[nH]c(-c2ccc(C(F)(F)F)cc2)ncc1O [Example 6, 5-Hydroxy-2-(4-trifluoromethyl-phenyl)-3H-pyrimidin-4-one] |
| 0.59 µM |  | O=c1[nH]c(-c2cccc(C#Cc3ccccc3)c2)ncc1O [Example 8] |
